Here are results for ten compounds from patent US20260226049A1, “NITROGEN-CONTAINING HETEROCYCLIC COMPOUND, PREPARATION METHOD THEREFOR, AND USE THEREOF” (BIVISION PHARMACEUTICALS, INC, priority 2023, published 2026).

In one data set the test system is HT1080 8 #cells. The data set is described as follows: Cell competitive binding assay against ^177Lu-radiolabeled FAPi-46. On the procedure: (1) HT1080 8 #cells in the logarithmic growth phase were prepared into a cell suspension, and the cell density was adjusted to 1×10^4/mL. 1 mL of the suspension was seeded into a 24-well cell culture plate. The plate was incubated overnight in a 37° C. incubator.
(2) The cell culture medium was aspirated, and the cells were washed once with PBS, followed by the addition of 975 μL of additive-free medium.
(3) To each well, 25 µL of ^177Lu-radiolabeled FAPi-46 (Nanchang Tanzhen Biotechnology Co., Ltd., CAS: 2374782-04-2) at a fixed concentration (final concentration in culture medium: 1.35 μCi/mL) and varying concentrations (final concentrations in culture medium: 1000 ng/mL, 100 ng/ml, 10 ng/ml, 1 ng/mL, 0.1 ng/ml, 0.01 ng/mL, 0.001 ng/mL, 0 ng/ml) of unlabeled test compounds JHH8, JHDB8, and JHH9 were added.
(4) The mixture was incubated on ice for 2 hours.
(5) The cells were washed three times with ice-cold PBS.
(6) The cells were lysed with 0.5 mL of 1 M sodium hydroxide, washed twice with 0.5 mL of PBS, and the sodium hydroxide solution (0.5 mL) and PBS solutions (0.5 mL×2) were collected for uptake counting.
The control compound was OncoFAP-DOTAGA (structural formula: […]
The cell competitive binding of compounds JHH5, JHH4, JHH10, JHH8, H4b, H5b, and H8b was tested in the same batch using the above method, and the experimental results are shown in Table 3 and FIG. 3.

A further data set deals with HT1080 2 #FAP cells. The data set is described as follows: Tissue distribution in FAP-positive tumor-bearing mice. As to conditions: 24 hours after tail vein injection, approximately 3.7 MBq/mouse. The class given is in vivo, mice (Balb/c Nude). From the text:
Tissue distribution in FAP-positive tumor-bearing mice: 2×10^6 HT1080 2 #FAP cells (in 50% Matrigel, Corning) were subcutaneously inoculated into the right shoulder of mice (Balb/c Nude, Vital River) aged approximately 6-9 weeks. When the tumors grew to approximately 150-350 mm^3 in size, the following “7. General ^177Lu Labeling Experimental Method” was used to label JHH3, JHH8, JHH9, JHDB7, and JHDB8 compounds. Subsequently, ^177Lu-JHH3, ^177Lu-JHH8, ^177Lu-JHH9, ^177Lu-JHDB7, ^177Lu-JHDB8, and ^177Lu-OncoFAP DOTAGA radiolabeled compounds were injected into the mice via the tail vein (approximately 3.7 MBq/mouse). 24 hours after administration, the animals were euthanized by CO2 inhalation, and blood and organs (liver, kidney, muscle, tumor) were collected after euthanasia.
After organ collection, the samples were rinsed twice with deionized water and dried, then placed in pre-weighed tubes and weighed again to calculate the sample weight. The samples were measured on the day of collection. All blood samples and tissue samples were measured for radioactive counts using a gamma counter.

A further data set addresses T1, FAP protein (Homo sapiens, UniProt Q12884).
T1 construct: purchased Sinobiological
T1 sequence (Q12884 1-760): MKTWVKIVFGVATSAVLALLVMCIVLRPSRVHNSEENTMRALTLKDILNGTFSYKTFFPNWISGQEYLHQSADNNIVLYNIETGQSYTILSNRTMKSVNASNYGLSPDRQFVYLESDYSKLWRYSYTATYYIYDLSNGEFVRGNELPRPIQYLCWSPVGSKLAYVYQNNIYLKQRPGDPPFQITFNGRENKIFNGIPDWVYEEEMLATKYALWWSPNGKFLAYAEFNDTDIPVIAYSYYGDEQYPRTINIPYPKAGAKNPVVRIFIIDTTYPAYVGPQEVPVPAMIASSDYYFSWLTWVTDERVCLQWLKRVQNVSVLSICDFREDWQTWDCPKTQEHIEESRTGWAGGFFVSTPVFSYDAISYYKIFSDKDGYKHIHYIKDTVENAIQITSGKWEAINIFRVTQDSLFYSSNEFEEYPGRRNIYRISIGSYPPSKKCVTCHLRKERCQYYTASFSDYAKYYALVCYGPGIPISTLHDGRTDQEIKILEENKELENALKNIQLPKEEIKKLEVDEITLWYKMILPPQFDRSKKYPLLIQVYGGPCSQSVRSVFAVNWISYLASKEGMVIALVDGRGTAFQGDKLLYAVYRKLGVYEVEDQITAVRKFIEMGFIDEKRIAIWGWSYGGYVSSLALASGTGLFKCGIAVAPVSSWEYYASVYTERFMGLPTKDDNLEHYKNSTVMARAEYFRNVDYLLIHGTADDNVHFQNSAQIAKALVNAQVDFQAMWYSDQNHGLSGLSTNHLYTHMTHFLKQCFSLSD
The data set is described as follows: Biacore test of ligand binding to FAP protein. As to conditions: FAP protein on SA chip, 15° C., 1:1 binding model. On the procedure:
The Biacore 8K (Cytiva) instrument was used to detect ligand binding of the FAP protein (Sinobiological). The FAP protein was captured on the SA chip. Before ligand immobilization (flow paths 1 and 2, flow rate of 10 μL/min), the FAP protein (10 μg/mL, flow rate of 5 μL/min, injection time of 600 s) was immobilized on flow path 2 using running buffer, and the sensor surface was conditioned with three consecutive injections of 1 M NaCl in 50 mM NaOH. After each ligand injection, additional washing was carried out with isopropanol in 1 M NaCl and 50 mM NaOH (flow paths 1 and 2, flow rate of 10 μL/min, injection time of 60 s).
The test compounds were dissolved in 100% dimethyl sulfoxide and diluted to 10 mM, then further diluted in the assay buffer (PBS, pH 7.4, 1 mM TCEP ([…]), 0.05% P20, 2% dimethyl sulfoxide) to appropriate maximum concentrations. The analyte was run under the following conditions: analysis temperature=15° C., analysis step=all set to LMW kinetics; cycle type=single cycle (90 s contact time, 1800 s dissociation time, 30 μL/min flow rate, flow channels 1, 2); flow channel detection=2-1). Data evaluation was performed using Biacore Insight Evaluation Software, and the data were fitted to a 1:1 binding model.
The Biacore results are shown in Table 1: pKD=−Log KD, where KD is the binding affinity of the compound to the FAP protein as measured by Biacore. The binding affinity is expressed by KD (M)=Kd(1/s)/Ka(1/Ms). Where A: pKD>8, B: 7<pKD<8, C: 6<pKD<7, D: pKD<6.

The test system of data set [1] is HT1080 cell line with high FAP expression. Put plainly: Therapeutic experiment of ^177Lu-labeled compounds in tumor-bearing mice. The class given is in vivo, Balb/c Nude mice. As to conditions: ^177Lu-labeled compound. On the procedure:
Balb/c Nude tumor-bearing mice (supplier: Shanghai Alamo Pharmaceutical Technology Co., Ltd., HT1080 cell line with high FAP expression) aged approximately 6-8 weeks were randomly assigned to 13 experimental groups based on tumor volume, with 5 mice per group. Animal body weight and tumor size were measured, and administration was initiated on the grouping day starting with Group 1 (control group: normal saline). General health and appearance were observed daily after the start of the experiment. Animal body weight and tumor size were measured before each sample collection time point. Any abnormal observations detected during the entire study period were required to be recorded in the raw data.
The synthesized compounds were labeled with ^177Lu and subsequently utilized in the therapeutic assay on mouse tumor models. […] Furthermore, no significant changes in mouse body weight (FIG. 8) were observed throughout the experimental period.
• TGI^TV: Relative tumor inhibition rate (TGI^TV): TGI^TV (%)=[1−(Ti−T0)/(Vi−V0)]×100%; • (Ti: average tumor volume of the treatment group on day i of administration, TO: average tumor volume of the treatment group on day 0 of administration; Vi: average tumor volume of the solvent control group on day i of administration, V0: average tumor volume of the solvent control group on day 0 of administration) • T/C: T/C % is one of the most commonly used indicators for tumor response to treatment: T/C %=T/C*100%; • (T represents the average tumor volume of the treatment group at a specific time point; C represents the average tumor volume of the control group at a specific time point.)
The differences between the treatment groups (tumor volumes of the second, third, fourth, and fifth groups) and the control group (tumor volume of the first group) and between the tumor volumes of the first, third, fourth, and fifth groups and the tumor volume of the second group were analyzed using the two-way ANOVA Fisher's LSD test method. P-values less than 0.05 were considered statistically significant. Both statistical significance and biological significance were taken into account during the result analysis.

The mark [2] stands for this setting: EC50 (ng/mL) converted with molecular weight, read-out: EC50.
The mark [3] stands for this setting: competition with ^177Lu-FAPi-46, on ice 2 hours.

SMILES strings stand for the structures. Like-named read-outs stand apart in the source and are kept apart here.

Take `N#C[C@@H]1CC(F)(F)CN1C(=O)CNC(=O)c1ccc2c(c1)CCCN2` [Compound H8b]: the concentration giving a half-maximal response (EC50) with HT1080 8 #cells (setting [2]) amounted to 9.24 nM; in the data set with HT1080 8 #cells (setting [3]), 3.219 ng/mL.

On to `N#C[C@@H]1CC(F)(F)CN1C(=O)CNC(=O)c1cc2c(s1)CCN(C(=O)CCC(=O)NCCNC(=O)CCC(C(=O)O)N1CCN(CC(=O)O)CCN(CC(=O)O)CCN(CC(=O)O)CC1)C2` (stereo partly shown) [^177Lu-JHH3, metal not drawn], for which, in the data set on HT1080 2 #FAP cells, the “uptake in other organs compared to the reference compound” value was “lower uptake in other organs” and the “uptake in tumor tissues compared to the reference compound” value is listed as “higher uptake in tumor tissues”.

Take `N#C[C@@H]1CC(F)(F)CN1C(=O)CNC(=O)c1cnc2c(c1)CCN(C(=O)CCC(=O)NCCNC(=O)CCC(C(=O)O)N1CCN(CC(=O)O)CCN(CC(=O)O)CCN(CC(=O)O)CC1)C2` (stereo partly drawn) [JHH1, 2,2′,2″-(10-(1-carboxy-4-((2-(4-(3-((2-((S)-2-cyano-4,4-difluoropyrrolidin-1-yl)-2-oxoethyl)carbamoyl)-5,8-dihydro-1,7-naphthyridin-7 (6H)-yl)-4-oxobutanamido)ethyl)amino)-4-oxobutyl)-1,4,7,10-tetraazacyclododecane-1,4,7-triyl)triacetic acid]: the Kd at FAP protein was 10 to 100 nM. Also, the “therapeutic effects in mouse tumor model” value in data set [1] is on record as “dose-dependent therapeutic effects”.

With `N#C[C@@H]1CC(F)(F)CN1C(=O)CNC(=O)c1cccc2c1CN(C(=O)CCC(=O)NCCNC(=O)CCC(C(=O)O)N1CCN(CC(=O)O)CCN(CC(=O)O)CCN(CC(=O)O)CC1)CC2` (stereo partly shown) [JHH4], the EC50 in the data set on HT1080 8 #cells (setting [2]) is 1.3 nM; in the data set with HT1080 8 #cells (setting [3]), 1.231 ng/mL.

As to `N#C[C@@H]1CC(F)(F)CN1C(=O)CNC(=O)c1ccnc2c(NC(=O)CCC(=O)NCCNC(=O)CCC(C(=O)O)N3CCN(CC(=O)O)CCN(CC(=O)O)CCN(CC(=O)O)CC3)cccc12` (stereo partly shown) [OncoFAP-DOTAGA, reference compound], the results for the EC50 in the data set on HT1080 8 #cells (setting [2]) and in the data set on HT1080 8 #cells (setting [3]) were 2.81 nM and 2.699 ng/mL, respectively.

Take `N#C[C@@H]1CC(F)(F)CN1C(=O)CNC(=O)c1cccc2c1CNCC2` [Compound H4b]: the EC50 in the data set with HT1080 8 #cells (setting [2]) came to 34.2 nM; in the data set with HT1080 8 #cells (setting [3]), 11.89 ng/mL.

In the case of `N#C[C@@H]1CC(F)(F)CC1C(=O)CNC(=O)c1ccc2c(c1)CCCN2C(=O)CCC(=O)NCCNC(=O)CCC(C(=O)O)N1CCN(CC(=O)O)CCN(CC(=O)O)CCN(CC(=O)O)CC1` (stereo partly shown) [JHH8], the EC50 with HT1080 8 #cells (setting [2]) was 14.5 nM; in the data set with HT1080 8 #cells (setting [3]), 13.77 ng/mL. The compound also had a Kd at FAP protein below 10 nM.

As to `N#C[C@@H]1CC(F)(F)CN1C(=O)CNC(=O)c1cccc(C2CCN(C(=O)CCC(=O)NCCNC(=O)CCC(C(=O)O)N3CCN(CC(=O)O)CCN(CC(=O)O)CCN(CC(=O)O)CC3)CC2)c1` (stereo partly shown) [JHH9], at FAP protein, the dissociation constant (Kd) was below 10 nM. Further, the “therapeutic effects in mouse tumor model” value in data set [1] is given as “dose-dependent therapeutic effects”.

Regarding `N#C[C@@H]1CC(F)(F)CN1C(=O)CNC(=O)c1cccc2c1CCCN2C(=O)CCC(=O)NCCNC(=O)CCC(C(=O)O)N1CCN(CC(=O)O)CCN(CC(=O)O)CCN(CC(=O)O)CC1` (stereo partly shown) [JHH10], the EC50 was found to be 3.56 nM with HT1080 8 #cells (setting [2]) and 3.38 ng/mL in the data set on HT1080 8 #cells (setting [3]). Further, the Kd on FAP protein is below 10 nM.

For `N#C[C@@H]1CC(F)(F)CN1C(=O)CNC(=O)c1cccc2c1CCNC2` [Compound H5b], the half-maximal effective concentration (EC50) in the data set on HT1080 8 #cells (setting [2]) was 452 nM; in the data set on HT1080 8 #cells (setting [3]) it was 157.5 ng/mL.

Usually EC50 stands for the concentration needed to bring the measured effect to its halfway point. As usually defined, the Kd is the constant that tells how readily two partners part at equilibrium. Low readings indicate tighter binding, high ones weaker binding.
